≈ marks a conversion by molar mass, not a printed value.
Tests used:
LMP7 = target: T1, LMP7 (Homo sapiens, UniProt P20618+P28062); experiment: ProCISE proteasome subunit assay, LMP7; assay type: biochemical; conditions: MOLT4 lysate Hu 1 h
T1 construct: endogenous in cells; host or cells: MOLT-4
Description: (§1) This assay was used to assess the inhibitory activity against each of LMP2, LMP7, MECL1, β1, β2, and β5. Briefly, test compounds were serially diluted in DMSO at 100× concentration, then diluted to 10× in aqueous hypotonic lysis buffer. Lysate from the human acute lymphoblastic leukemia cell line, MOLT-4, was treated for 1 hour at 25° C. with compound at a final 1× concentration. […] Following this, lysate was denatured in guanidine hydrochloride, and subunits bound to probe were isolated with streptavidin-conjugated sepharose beads. Individual subunits were probed with subunit-specific primary antibodies, followed by HRP-conjugated secondary antibodies. A chemiluminescent substrate was used to generate signal associated with HRP binding, which was detected on a plate reader. Luminescent signal was normalized to protein content, then, percent activity calculated relative to DMSO-treated controls to generate IC50 curves.

[1] = target: i20S (20S immunoproteasome) (Homo sapiens, UniProt P20618+P28062); experiment: 20S proteasome assay, chymotrypsin-like activity (LLVY), i20S; assay type: biochemical; conditions: LLVY i20S Hu 1 h CONT: IC50 (nM), succinyl-Leu-Leu-Val-Tyr-AMC
Description: (§2) Assay buffer consisted of TE buffer [20 mmol/L Tris (pH 8.0), 0.5 mmol/L EDTA] with (20S) or without (cell lysate) 0.03% SDS. Reactions were initiated by enzyme or lysate addition and monitored for AMC product formation at 27jC with a plate-based spectofluorometer (Tecan).

[2] = target: c20S (constitutive 20S proteasome) (Homo sapiens, UniProt P20618+P28074); experiment: 20S proteasome assay, chymotrypsin-like activity (LLVY), c20S; assay type: biochemical; conditions: LLVY c20S Hu 1 h CONT: IC50 (nM), succinyl-Leu-Leu-Val-Tyr-AMC
Description: as §2

β5 = target: T2, β5 (Homo sapiens, UniProt P20618+P28074); experiment: ProCISE proteasome subunit assay, β5; assay type: biochemical; conditions: MOLT4 lysate Hu 1 h
T2 construct: endogenous in cells; host or cells: MOLT-4
Description: as §1

Solubility pH 7 = assay type: physicochemical; conditions: pH 7, aqueous buffer

SMILES | IC50 (LMP7) [nM] | IC50 [1] [nM] | IC50 [2] [nM] | IC50 (β5) [nM] | solubility (Solubility pH 7) [µg/mL]
COc1ccc(C[C@H](NC(=O)[C@H](C)NC(=O)C(C)(F)F)C(=O)N[C@@H](Cc2ccccc2)C(=O)[C@@]2(C)CO2)cc1 [Compound C-2006] | 34.4 | 6.1 | 29 | 180 | –
COc1ccc(C[C@H](NC(=O)[C@H](CO)NC(C)=O)C(=O)N[C@@H](Cc2ccccc2)C(=O)[C@@]2(C)CO2)cc1 [Compound C-2007, (S)-2-acetamido-3-hydroxy-N—((S)-3-(4-methoxyphenyl)-1-(((S)-1-((R)-2-methyloxiran-2-yl)-1-oxo-3-phenylpropan-2-yl)amino)-1-oxopropan-2-yl)propanamide] | 211 | 118 | 432 | 478 | 728 (≈ 1420 µM)
COc1ccc(C[C@H](NC(=O)[C@H](C)NC(=O)C(F)(F)F)C(=O)N[C@@H](Cc2ccccc2)C(=O)[C@@]2(C)CO2)cc1 [Compound C-2011, (S)-3-(4-Methoxyphenyl)-N—((S)-1-((R)-2-methyloxiran-2-yl)-1-oxo-3-phenylpropan-2-yl)-2-((S)-2-(2,2,2-trifluoroacetamido)propanamido)propanamide] | 97.1 | 13.5 | 68.6 | 342 | –
COCOCCC(=O)N[C@@H](C)C(=O)N[C@@H](Cc1ccc(OC)cc1)C(=O)N[C@@H](Cc1ccccc1)C(=O)[C@@]1(C)CO1 [Compound C-2013, (S)-2-((S)-2-(3-(methoxymethoxy)propanamido)propanamido)-3-(4-methoxyphenyl)-N—((S)-1-((R)-2-methyloxiran-2-yl)-1-oxo-3-phenylpropan-2-yl)propanamide] | 66.7 | 40.2 | 117 | 359 | 725 (≈ 1270 µM)
COc1ccc(C[C@H](NC(=O)[C@H](C)NC(=O)Cc2cc(C)no2)C(=O)N[C@@H](CC2CCCC2)C(=O)[C@@]2(C)CO2)cc1 [Compound C-2014, (S)—N—((S)-3-cyclopentyl-1-((R)-2-methyloxiran-2-yl)-1-oxopropan-2-yl)-3-(4-methoxyphenyl)-2-((S)-2-(2-(3-methylisoxazol-5-yl)acetamido)propanamido)propanamide] | 56.4 | 16.6 | 45.7 | 372 | –
COc1ccc(C[C@H](NC(=O)[C@@H](C)NC(=O)Cc2cc(C)no2)C(=O)N[C@@H](CC2CCCC2)C(=O)[C@@]2(C)CO2)cc1 [Compound C-2015, (S)—N—((S)-3-cyclopentyl-1-((R)-2-methyloxiran-2-yl)-1-oxopropan-2-yl)-3-(4-methoxyphenyl)-2-((R)-2-(2-(3-methylisoxazol-5-yl)acetamido)propanamido)propanamide] | 3060 | 2920 | 18600 | 30400 | 169 (≈ 298 µM)
COCCC(=O)N[C@H](C)C(=O)N[C@@H](Cc1ccc(OC)cc1)C(=O)N[C@@H](CC1CCCC1)C(=O)[C@@]1(C)CO1 [Compound C-2018, (S)—N—((S)-3-cyclopentyl-1-((R)-2-methyloxiran-2-yl)-1-oxopropan-2-yl)-3-(4-methoxyphenyl)-2-((R)-2-(3-methoxypropanamido)propanamido)propanamide] | 1180 | 570 | 12800 | 34900 | 129 (≈ 243 µM)
COCCC(=O)N[C@@H](C)C(=O)N[C@@H](Cc1ccc(OC)cc1)C(=O)N[C@@H](CC1CCCC1)C(=O)[C@@]1(C)CO1 [Compound C-2019, (S)—N—((S)-3-cyclopentyl-1-((R)-2-methyloxiran-2-yl)-1-oxopropan-2-yl)-3-(4-methoxyphenyl)-2-((S)-2-(3-methoxypropanamido)propanamido)propanamide] | – | 332 | 579 | – | 316 (≈ 594 µM)
CCOCC(=O)N[C@@H](C)C(=O)N[C@@H](Cc1ccc(OC)cc1)C(=O)N[C@@H](CC1CCCC1)C(=O)[C@@]1(C)CO1 [Compound C-2020, (S)—N—((S)-3-cyclopentyl-1-((R)-2-methyloxiran-2-yl)-1-oxopropan-2-yl)-2-((S)-2-(2-ethoxyacetamido)propanamido)-3-(4-methoxyphenyl)propanamide] | – | 560 | 797 | – | 59.1 (≈ 111 µM)
CCOCC(=O)N[C@H](C)C(=O)N[C@@H](Cc1ccc(OC)cc1)C(=O)N[C@@H](CC1CCCC1)C(=O)[C@@]1(C)CO1 [Compound C-2021, (S)—N—((S)-3-cyclopentyl-1-((R)-2-methyloxiran-2-yl)-1-oxopropan-2-yl)-2-((R)-2-(2-ethoxyacetamido)propanamido)-3-(4-methoxyphenyl)propanamide] | 1890 | 1220 | 99000 | 30800 | 103 (≈ 193 µM)
COc1ccc(C[C@H](NC(=O)[C@@H](C)NC(=O)c2oncc2C)C(=O)N[C@@H](CC2CCCC2)C(=O)[C@@]2(C)CO2)cc1 [Compound C-2024, N—((R)-1-(((S)-1-(((S)-3-cyclopentyl-1-((R)-2-methyloxiran-2-yl)-1-oxopropan-2-yl)amino)-3-(4-methoxyphenyl)-1-oxopropan-2-yl)amino)-1-oxopropan-2-yl)-4-methylisoxazole-5-carboxamide] | – | 2270 | 6030 | – | 44.1 (≈ 79.5 µM)
COc1ccc(C[C@H](NC(=O)[C@H](C)NC(=O)c2cnc(C)s2)C(=O)N[C@@H](CC2CCCC2)C(=O)[C@@]2(C)CO2)cc1 [Compound C-2025, N—((S)-1-(((S)-1-(((S)-3-cyclopentyl-1-((R)-2-methyloxiran-2-yl)-1-oxopropan-2-yl)amino)-3-(4-methoxyphenyl)-1-oxopropan-2-yl)amino)-1-oxopropan-2-yl)-2-methylthiazole-5-carboxamide] | – | 569 | 289 | – | 144 (≈ 253 µM)
COc1ccc(C[C@H](NC(=O)[C@@H](C)NC(=O)c2nc3ccccc3[nH]2)C(=O)N[C@@H](CC2CCCC2)C(=O)[C@@]2(C)CO2)cc1 [Compound C-2029, N—((R)-1-(((S)-1-(((S)-3-cyclopentyl-1-((R)-2-methyloxiran-2-yl)-1-oxopropan-2-yl)amino)-3-(4-methoxyphenyl)-1-oxopropan-2-yl)amino)-1-oxopropan-2-yl)-1H-benzo[d]imidazole-2-carboxamide] | – | 2580 | 3400 | – | 1.7 (≈ 2.88 µM)
COc1ccc(C[C@H](NC(=O)CNC(=O)C2=C(C)c3ccccc3C2)C(=O)N[C@@H](CC2CCCC2)C(=O)[C@@]2(C)CO2)cc1 [Compound C-2039, N-(2-(((S)-1-(((S)-3-cyclopentyl-1-((R)-2-methyloxiran-2-yl)-1-oxopropan-2-yl)amino)-3-(4-methoxyphenyl)-1-oxopropan-2-yl)amino)-2-oxoethyl)-3-methyl-1H-indene-2-carboxamide] | – | 2520 | 3950 | – | 1.7 (≈ 2.89 µM)
COc1ccc(C[C@H](NC(=O)[C@@H](C)NC(=O)c2ccno2)C(=O)N[C@@H](CC2CCCC2)C(=O)[C@@]2(C)CO2)cc1 [Compound C-2041, N—((R)-1-(((S)-1-(((S)-3-cyclopentyl-1-((R)-2-methyloxiran-2-yl)-1-oxopropan-2-yl)amino)-3-(4-methoxyphenyl)-1-oxopropan-2-yl)amino)-1-oxopropan-2-yl)isoxazole-5-carboxamide] | – | 1400 | 9800 | – | 65.9 (≈ 122 µM)
COc1ccc(C[C@H](NC(=O)[C@H](CN2CCOCC2)NC(=O)c2cc(C)no2)C(=O)N[C@@H](CC2CCCC2)C(=O)[C@@]2(C)CO2)cc1 [Compound C-2044, N—((S)-1-(((S)-1-(((S)-3-cyclopentyl-1-((R)-2-methyloxiran-2-yl)-1-oxopropan-2-yl)amino)-3-(4-methoxyphenyl)-1-oxopropan-2-yl)amino)-3-morpholino-1-oxopropan-2-yl)-3-methylisoxazole-5-carboxamide] | – | 1600 | 286 | – | 130 (≈ 204 µM)
COc1ccc(C[C@H](NC(=O)[C@@H](NC(=O)OCc2ccccc2)C2(O)CC2)C(=O)N[C@@H](Cc2ccccc2)C(=O)[C@@]2(C)CO2)cc1 [Compound C-2046, Benzyl ((S)-1-(1-hydroxycyclopropyl)-2-(((S)-3-(4-methoxyphenyl)-1-(((S)-1-((R)-2-methyloxiran-2-yl)-1-oxo-3-phenylpropan-2-yl)amino)-1-oxopropan-2-yl)amino)-2-oxoethyl)carbamate] | – | 5.2 | 7.9 | – | 10.7 (≈ 17 µM)
COc1ccc(C[C@H](NC(=O)[C@]2(C)CCC(=O)N2)C(=O)N[C@@H](Cc2ccccc2)C(=O)[C@@]2(C)CO2)cc1 [Compound C-3011, (S)—N—((S)-3-(4-methoxyphenyl)-1-(((S)-1-((R)-2-methyloxiran-2-yl)-1-oxo-3-phenylpropan-2-yl)amino)-1-oxopropan-2-yl)-2-methyl-5-oxopyrrolidine-2-carboxamide] | – | 4550 | 3320 | – | 1230 (≈ 2420 µM)

From patent publication US9657057B2, “Dipeptide and tripeptide epoxy ketone protease inhibitors” (Onyx Therapeutics, Inc., priority 2013, dated 2017)
